Data reported in US8916555B2, “3,5-diaminopyrazole kinase inhibitors” (Axikin Pharmaceuticals, Inc., priority 2012, dated 2014).

These molecules were tested against T1, kinase domain protein of RC kinase (Homo sapiens, UniProt Q56UN5) (assay: Enzymatic assay for kinase inhibitory activity (Crebtide substrate, LANCE readout), kinase domain protein). Details: test compound 1 μM, ATP 1 μM, Crebtide 50 nM.
T1 sequence (Q56UN5 1061-1324 limits assumed): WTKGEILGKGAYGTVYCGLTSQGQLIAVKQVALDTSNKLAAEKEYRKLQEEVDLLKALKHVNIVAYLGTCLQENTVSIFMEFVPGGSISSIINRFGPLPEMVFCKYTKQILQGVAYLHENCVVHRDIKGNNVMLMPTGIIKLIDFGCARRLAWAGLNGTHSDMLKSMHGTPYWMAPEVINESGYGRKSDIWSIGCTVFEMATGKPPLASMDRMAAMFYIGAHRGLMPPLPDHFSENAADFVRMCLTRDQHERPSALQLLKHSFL
Type: biochemical
Protocol: Solutions of a test compound, Crebtide (a substrate), a kinase, and ATP were prepared using 1×MAPK Buffer (50 mM HEPES, 1 mM EGTA, […], 10 mM MgCl2, 2 mM DTT, and 0.01% Tween 20).
To each well, the test compound (1 μL) was first added (in duplicate) to reach a final concentration of 1 μM or 1×IC50 of the compound. The kinase (5 μL) was then added to each well to reach a final concentration of […] for the kinase domain or […] for the full-length domain. Each plate included a positive and negative controls in duplicate wells. Crebtide (2.5 μL) was then added to each well in duplicate to reach a final concentration of 50 nM. If the full-length kinase was used, the plates were incubated for 45 min at room temperature before proceeding further. ATP (2.5 μL) was added to each well to reach a final concentration of 1 μM for the kinase domain and 3 μM for the full-length.
After the addition of ATP, the plates were incubated for 45 min at room temperature. During the incubation, an EDTA solution (40 mM) and anti-Crebtide ([…]) were prepared. Additionally, a detection buffer stock solution was diluted ten fold before use.
After the incubation, the anti-Crebtide (5 μL) and EDTA (5 μL) were added to each well to reach their final concentrations of […] and 10 mM, respectively. The plates were allowed to develop at room temperature for 45 min. The plates were then read at 665 nm and 615 nm using Perkin Elmer Lance machine.
The biological results of inhibition of the kinase domain protein of RC kinase are summarized in Tables 2 and 3, wherein A represents at least 50% inhibition of the RC kinase activity at 1 μM; B represents no greater than 50% but at least 20% inhibition of the RC kinase activity at 1 μM; C represents no greater than 20% but at least 5% inhibition of the RC kinase activity at 1 μM; and D represents no greater than 5% inhibition of the RC kinase activity at 1 μM.

Row | inhibition at 1 µM [%] | SMILES | Activity (inhibition of the RC kinase activity at 1 μM)
1 | 5 to 20 | N#Cc1c(Nc2cccc(Cl)c2)n[nH]c1NCc1ccc(Oc2nccc(C(F)(F)F)n2)cc1 [Compound C1, 3-((3-chlorophenyl)amino)-5-((4-((4-(trifluoromethyl)pyrimidin-2-yl)oxy)benzyl)amino)-1H-pyrazole-4-carbonitrile] | 
2 | 5 to 20 | N#Cc1c(Nc2cccc(Cl)c2)n[nH]c1NCc1cccn1S(=O)(=O)c1ccccc1 [Compound C4] | 
3 | 5 to 20 | N#Cc1c(Nc2cccc(Cl)c2)n[nH]c1NCc1ccc(S(F)(F)(F)(F)F)cc1 [Compound C5, 3-((3-chlorophenyl)amino)-5-((4-pentafluorothiobenzyl)amino)-1H-pyrazole-4-carbonitrile] | 
4 | 20 to 50 | N#Cc1c(Nc2cccc(Cl)c2)n[nH]c1NCc1ccc(OCc2ccc(F)cc2)cc1 [Compound C6] | 
5 | 5 to 20 | N#Cc1c(Nc2cccc(Cl)c2)n[nH]c1NCc1ccc(-n2cnc3ccccc32)cc1 [Compound C7] | 
6 | 5 to 20 | N#Cc1c(Nc2cccc(Cl)c2)n[nH]c1NCc1c[nH]c2c(F)c(F)c(F)c(F)c12 [Compound C8] | 
7 | ≤ 5 | Cn1nc(C(F)(F)F)c(CNc2[nH]nc(Nc3cccc(Cl)c3)c2C#N)c1Cl [Compound C9] | 
8 | ≤ 5 | N#Cc1c(Nc2cccc(Cl)c2)n[nH]c1NCc1ccc(OC(F)(F)F)c(F)c1 [Compound C10] | 
9 | ≤ 5 | N#Cc1c(Nc2cccc(Cl)c2)n[nH]c1NCc1nc(-c2ccccc2)[nH]c1Cl [Compound C11] | 
10 | ≤ 5 | N#Cc1c(Nc2cccc(Cl)c2)n[nH]c1NCc1ccc(-c2ccc(Cl)cc2)o1 [Compound C12] | 
11 | ≤ 5 | CN1CCN(c2ccc(CNc3[nH]nc(Nc4cccc(Cl)c4)c3C#N)cc2)CC1 [Compound C13] | 
12 | ≤ 5 | COc1ccc(C(F)(F)F)cc1CNc1[nH]nc(Nc2cccc(Cl)c2)c1C#N [Compound C14] | 
13 | ≤ 5 | N#Cc1c(Nc2cccc(Cl)c2)n[nH]c1NCc1ccc(N2CCOCC2)nc1 [Compound C15] | 
14 | ≤ 5 | N#Cc1c(Nc2cccc(Cl)c2)n[nH]c1NCc1ccc(-c2ccccn2)s1 [Compound C16] | 
15 | ≤ 5 | N#Cc1c(Nc2cccc(Cl)c2)n[nH]c1NCc1ccc(OC(F)F)c(O)c1 [Compound C17, 3-((3-chlorophenyl)amino)-5-((4-(difluoromethoxy)-3-hydroxybenzyl)amino)-1H-pyrazole-4-carbonitrile] | 
16 | 5 to 20 | N#Cc1c(Nc2cccc(Cl)c2)n[nH]c1NCc1ccc(-n2cncn2)cc1 [Compound C20] | 
17 | 5 to 20 | N#Cc1c(Nc2cccc(Cl)c2)n[nH]c1NCc1ccc(OCCO)cc1 [Compound C21, 3-((3-chlorophenyl)amino)-5-((4-(2-hydroxyethoxy)benzyl)amino)-1H-pyrazole-4-carbonitrile] | 
18 | ≤ 5 | COc1ccc(CNc2[nH]nc(Nc3cccc(Cl)c3)c2C#N)c(C)c1C [Compound C22] | 
19 | 20 to 50 | N#Cc1c(Nc2cccc(Cl)c2)n[nH]c1NCc1c(O)cccc1Cl [Compound C25] | 
20 | ≤ 5 | N#Cc1c(Nc2cccc(Cl)c2)n[nH]c1NCc1cccnc1Cl [Compound C28, 3-((3-chlorophenyl)amino)-5-(((2-chloropyridin-3-yl)methyl)amino)-1H-pyrazole-4-carbonitrile] | 

Row | inhibition at 1 µM [%] | SMILES | Activity (inhibition of the RC kinase activity at 1 μM)
21 | 5 to 20 | Cc1cc(F)ccc1CNc1[nH]nc(Nc2cccc(Cl)c2)c1C#N [Compound C29, 3-((3-chlorophenyl)amino)-5-((4-fluoro-2-methylbenzyl)amino)-1H-pyrazole-4-carbonitrile] | 
22 | 5 to 20 | Cc1ccc(CNc2[nH]nc(Nc3cccc(Cl)c3)c2C#N)c(O)c1 [Compound C30] | 
23 | 20 to 50 | Cc1cc(CNc2[nH]nc(Nc3cccc(Cl)c3)c2C(N)=O)cc(C)c1O [Compound D8] | 
24 |  | NC(=O)c1c(Nc2cccc(Cl)c2)n[nH]c1NCc1ccc(Oc2ncccn2)cc1 [Compound D11, 3-((3-chlorophenyl)amino)-5-((4-(pyrimidin-2-yloxy)benzyl)amino)-1H-pyrazole-4-carboxamide] | A (at least 50% inhibition of the RC kinase activity at 1 μM)
25 | 20 to 50 | NC(=O)c1c(Nc2cccc(Cl)c2)n[nH]c1NCc1cccn1S(=O)(=O)c1ccccc1 [Compound D18, 3-((3-chlorophenyl)amino)-5-(((1-(phenylsulfonyl)-1H-pyrrol-2-yl)methyl)amino)-1H-pyrazole-4-carboxamide] | 
26 | ≤ 5 | NC(=O)c1c(Nc2cccc(Cl)c2)n[nH]c1NCc1c[nH]c2c(F)c(F)c(F)c(F)c12 [Compound D22, 3-((3-chlorophenyl)amino)-5-(((4,5,6,7-tetrafluoro-1H-indol-3-yl)methyl)amino)-1H-pyrazole-4-carboxamide] | 
27 | 5 to 20 | COc1cc(OC)c(OC)cc1CNc1[nH]nc(Nc2cccc(Cl)c2)c1C(N)=O [Compound D58] | 
28 | 5 to 20 | NC(=O)c1c(Nc2cccc(Cl)c2)n[nH]c1NCc1ccc([N+](=O)[O-])cc1 [Compound D74, 3-((3-chlorophenyl)amino)-5-((4-nitrobenzyl)amino)-1H-pyrazole-4-carboxamide] | 
29 | 5 to 20 | Cc1cc(C)cc(CNc2[nH]nc(Nc3cccc(Cl)c3)c2C(N)=O)c1 [Compound D78] | 
30 | ≥ 50 | NC(=O)c1c(Nc2ccc(-n3cccn3)cc2)n[nH]c1NCc1ccc(O)cc1 [Compound D79, 3-((4-(1H-pyrazol-1-yl)phenyl)amino)-5-((4-hydroxybenzyl)amino)-1H-pyrazole-4-carboxamide] | 
31 | ≥ 50 | NC(=O)c1c(Nc2ccc(Cc3ccccc3)cc2)n[nH]c1NCc1ccc(O)cc1 [Compound D83, 3-((4-benzylphenyl)amino)-5-((4-hydroxybenzyl)amino)-1H-pyrazole-4-carboxamide] | 
32 | ≥ 50 | NC(=O)c1c(Nc2ccc(-c3cc[nH]n3)cc2)n[nH]c1NCc1ccc(O)cc1 [Compound D84] | 
33 | ≤ 5 | NC(=O)c1c(Nc2cccc(Cl)c2)n[nH]c1NCc1ccc(O)nc1 [Compound D86] | 
34 | ≤ 5 | COc1ncc(CNc2[nH]nc(Nc3cccc(Cl)c3)c2C(N)=O)cn1 [Compound D87] | 
35 | 20 to 50 | CC1CCN(C2CCN(c3n[nH]c(NCc4ccc(O)cc4)c3C(N)=O)CC2)CC1 [Compound D88] | 
36 | ≥ 50 | COc1ccc(C(=O)Nc2ccc(Nc3n[nH]c(NCc4ccc(O)cc4)c3C(N)=O)cc2)cc1OC [Compound D129] | 
37 | ≥ 50 | NC(=O)c1c(Nc2ccc(NC(=O)c3cccc(Cl)c3)cc2)n[nH]c1NCc1ccc(O)cc1 [Compound D130] | 
38 | 20 to 50 | NC(=O)c1c(NC2CCCCC2)n[nH]c1NCc1ccc(O)cc1 [Compound D133, 3-(cyclohexylamino)-5-((4-hydroxybenzyl)amino)-1H-pyrazole-4-carboxamide] | 
39 | ≥ 50 | NC(=O)c1c(Nc2ccc(CN3CCOCC3)cc2)n[nH]c1NCc1ccc(O)cc1 [Compound D134, 5-((4-hydroxybenzyl)amino)-3-((4-(morpholinomethyl)phenyl)amino)-1H-pyrazole-4-carboxamide] | 

Row | SMILES | inhibition at 1 µM [%] | Activity (inhibition of the RC kinase activity at 1 μM)
40 | NC(=O)c1c(Nc2cccc(Cl)c2)n[nH]c1NCc1ccc(Cl)nc1 [Compound D6] | 5 to 20 | 
